According to patent US11046694B2, “Compounds and methods for treating bacterial infections” (Entasis Therapeutics, Inc., priority 2018, dated 2021):
≈ marks a conversion by molar mass, not a printed value. Structures can show the parent of a compound that is named as a salt.

Tests used:
P. aeruginosa PBP1a = P. aeruginosa PBP1a (Pseudomonas aeruginosa, UniProt Q07806); format: biochemical; conditions: P. aeruginosa PBP1a 60 nM, BOCILLIN FL 30 nM, pH 7.0
P. aeruginosa PBP2 = biological target: T1, P. aeruginosa PBP2 (Pseudomonas aeruginosa, UniProt Q9X6V3); format: biochemical; conditions: P. aeruginosa PBP2 300 nM, BOCILLIN FL 30 nM, pH 6.2
T1 sequence (Q9X6V3 1-646): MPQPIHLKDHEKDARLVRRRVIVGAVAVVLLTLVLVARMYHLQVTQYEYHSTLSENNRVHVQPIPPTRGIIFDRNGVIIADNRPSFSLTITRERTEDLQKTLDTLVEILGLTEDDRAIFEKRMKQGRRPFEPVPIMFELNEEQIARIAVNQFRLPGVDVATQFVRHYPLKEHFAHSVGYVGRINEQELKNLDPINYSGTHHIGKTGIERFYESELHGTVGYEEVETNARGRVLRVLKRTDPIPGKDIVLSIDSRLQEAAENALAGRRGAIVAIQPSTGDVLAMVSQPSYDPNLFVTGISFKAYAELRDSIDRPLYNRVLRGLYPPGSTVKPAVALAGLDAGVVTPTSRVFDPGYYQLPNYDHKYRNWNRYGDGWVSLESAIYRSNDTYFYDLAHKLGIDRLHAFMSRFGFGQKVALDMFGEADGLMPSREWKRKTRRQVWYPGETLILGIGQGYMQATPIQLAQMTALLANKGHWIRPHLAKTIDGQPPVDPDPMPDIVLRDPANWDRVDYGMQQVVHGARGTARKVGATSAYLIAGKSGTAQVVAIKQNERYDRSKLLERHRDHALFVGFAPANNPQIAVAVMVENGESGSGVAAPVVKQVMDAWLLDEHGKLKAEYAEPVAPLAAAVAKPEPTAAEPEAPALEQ

P. aeruginosa PBP3 = P. aeruginosa PBP3 (Pseudomonas aeruginosa, UniProt G3XD46); format: biochemical; conditions: P. aeruginosa PBP3 60 nM, BOCILLIN FL 30 nM, pH 7.0
Sequence of P. aeruginosa PBP3 (G3XD46 whole entry): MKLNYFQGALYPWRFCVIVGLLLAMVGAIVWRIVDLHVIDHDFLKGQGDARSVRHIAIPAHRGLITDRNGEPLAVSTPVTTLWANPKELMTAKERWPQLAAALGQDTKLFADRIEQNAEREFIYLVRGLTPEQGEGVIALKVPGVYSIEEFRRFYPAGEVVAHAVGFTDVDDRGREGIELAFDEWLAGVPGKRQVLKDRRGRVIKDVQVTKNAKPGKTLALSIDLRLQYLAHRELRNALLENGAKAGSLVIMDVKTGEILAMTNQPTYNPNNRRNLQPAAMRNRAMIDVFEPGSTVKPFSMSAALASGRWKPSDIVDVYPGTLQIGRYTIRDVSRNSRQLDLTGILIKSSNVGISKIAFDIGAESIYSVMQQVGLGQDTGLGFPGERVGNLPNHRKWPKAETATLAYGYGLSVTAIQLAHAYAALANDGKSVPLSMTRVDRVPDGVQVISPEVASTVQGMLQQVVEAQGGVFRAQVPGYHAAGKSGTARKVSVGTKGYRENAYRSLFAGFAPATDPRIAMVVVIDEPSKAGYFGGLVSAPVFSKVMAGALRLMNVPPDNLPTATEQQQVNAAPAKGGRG

P. aeruginosa WT (PAO1) = test: MIC, CLSI broth microdilution, P. aeruginosa; format: cell-based; conditions: Pseudomonas aeruginosa, PAO1; CLSI broth microdilution; read-out: P. aeruginosa WT (PAO1) MIC
E. coli (ATCC25922) = test: MIC against E. coli; conditions: Escherichia coli, ATCC25922, read-out: E. coli MIC (ATCC25922) (mg/L)
A. baumannii (ARC3495) = test: MIC against A. baumannii; conditions: Acinetobacter baumannii, read-out: A. baumannii MIC (ARC3495) (mg/L)
[1] = system: K. pneumoniae (ATCC700603); test: MIC against K. pneumoniae; conditions: Klebsiella pneumoniae, ATCC700603, read-out: K. pneumoniae MIC (ATCC700603)

Sequence of P. aeruginosa PBP1a (Q07806 whole entry): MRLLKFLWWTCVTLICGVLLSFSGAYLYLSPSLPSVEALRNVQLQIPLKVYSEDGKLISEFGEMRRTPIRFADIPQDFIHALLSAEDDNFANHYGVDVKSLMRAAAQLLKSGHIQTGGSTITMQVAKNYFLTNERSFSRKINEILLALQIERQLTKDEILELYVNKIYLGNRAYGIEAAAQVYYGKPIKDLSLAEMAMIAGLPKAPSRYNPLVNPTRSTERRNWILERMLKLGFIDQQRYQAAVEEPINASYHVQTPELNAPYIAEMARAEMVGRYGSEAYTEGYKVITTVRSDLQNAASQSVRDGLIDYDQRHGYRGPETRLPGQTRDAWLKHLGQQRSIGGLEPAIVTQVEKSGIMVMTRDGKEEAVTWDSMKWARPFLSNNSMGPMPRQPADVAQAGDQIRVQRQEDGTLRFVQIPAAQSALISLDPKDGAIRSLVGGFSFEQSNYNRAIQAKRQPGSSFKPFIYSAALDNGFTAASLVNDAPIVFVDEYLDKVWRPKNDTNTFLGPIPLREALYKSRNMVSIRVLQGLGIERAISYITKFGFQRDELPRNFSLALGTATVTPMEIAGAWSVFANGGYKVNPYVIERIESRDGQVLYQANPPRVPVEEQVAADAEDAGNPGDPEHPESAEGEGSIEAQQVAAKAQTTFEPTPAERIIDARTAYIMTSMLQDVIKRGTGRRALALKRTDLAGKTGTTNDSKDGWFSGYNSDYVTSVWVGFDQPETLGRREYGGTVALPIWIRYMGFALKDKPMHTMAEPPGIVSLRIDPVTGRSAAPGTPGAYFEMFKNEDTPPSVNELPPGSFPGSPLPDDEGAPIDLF

## CN/C(=N\O)[C@@H]1c2c(cnn2CCN)[C@@H]2CN1C(=O)N2OS(=O)(=O)O [Example 47, (4R,8S)-1-(2-aminoethyl)-8-((Z)—N′-hydroxy-N-methylcarbamimidoyl)-6-oxo-4,8-dihydro-1H-4,7-methanopyrazolo[3,4-e][1,3]diazepin-5(6H)-yl hydrogen sulfate]
P. aeruginosa PBP1a
  PBP1a acylation rate, k(on) (M^−1 · s^−1): ** (** represents a k(on) of 100 to 10,000 M^−1 · s^−1)
P. aeruginosa PBP2
  PBP2 acylation rate, k(on) (M^−1 · s^−1): * (* represents a k(on) < 100 M^−1 · s^−1)
P. aeruginosa PBP3
  PBP3 acylation rate, k(on) (M^−1 · s^−1): *** (*** represents a k(on) > 10,000 M^−1 · s^−1)
P. aeruginosa WT (PAO1)
  MIC: < 8 µg/mL
E. coli (ATCC25922)
  MIC: < 8 mg/L
A. baumannii (ARC3495)
  MIC: < 8 mg/L
[1]
  MIC: < 8 µg/mL

## Cn1ncc2c1[C@@H](/C(=N/O)NCCCCN)N1C[C@@H]2N(OS(=O)(=O)O)C1=O (racemic) [Example 8]
P. aeruginosa PBP1a
  PBP1a acylation rate, k(on) (M^−1 · s^−1): * (* represents a k(on) < 100 M^−1 · s^−1)
P. aeruginosa PBP2
  PBP2 acylation rate, k(on) (M^−1 · s^−1): * (* represents a k(on) < 100 M^−1 · s^−1)
P. aeruginosa PBP3
  PBP3 acylation rate, k(on) (M^−1 · s^−1): * (* represents a k(on) < 100 M^−1 · s^−1)
P. aeruginosa WT (PAO1)
  MIC: > 16 µg/mL
E. coli (ATCC25922)
  MIC: < 8 mg/L
A. baumannii (ARC3495)
  MIC: > 16 mg/L
[1]
  MIC: > 16 µg/mL

## CON/C(=N\O)[C@@H]1c2c(cnn2C)[C@@H]2CN1C(=O)N2OS(=O)(=O)O (racemic) [Example 11]
P. aeruginosa PBP1a
  PBP1a acylation rate, k(on) (M^−1 · s^−1): ** (** represents a k(on) of 100 to 10,000 M^−1 · s^−1)
P. aeruginosa PBP2
  PBP2 acylation rate, k(on) (M^−1 · s^−1): * (* represents a k(on) < 100 M^−1 · s^−1)
P. aeruginosa PBP3
  PBP3 acylation rate, k(on) (M^−1 · s^−1): *** (*** represents a k(on) > 10,000 M^−1 · s^−1)
P. aeruginosa WT (PAO1)
  MIC: 8 to 16 µg/mL (≈ 22.1 to 44.2 µM)
E. coli (ATCC25922)
  MIC: < 8 mg/L
A. baumannii (ARC3495)
  MIC: 8 to 16 mg/L (≈ 22.1 to 44.2 µM)
[1]
  MIC: < 8 µg/mL

## Cn1ncc2c1[C@@H](C1=NOC(C(=O)O)C1)N1C[C@@H]2N(OS(=O)(=O)O)C1=O (mixture of isomers) [Example 35, 3-((4R,8S)-1-methyl-6-oxo-5-(sulfooxy)-4,5,6,8-tetrahydro-1H-4,7-methanopyrazolo[3,4-e][1,3]diazepin-8-yl)-4,5-dihydroisoxazole-5-carboxylic acid]
P. aeruginosa PBP1a
  PBP1a acylation rate, k(on) (M^−1 · s^−1): * (* represents a k(on) < 100 M^−1 · s^−1)
P. aeruginosa PBP2
  PBP2 acylation rate, k(on) (M^−1 · s^−1): * (* represents a k(on) < 100 M^−1 · s^−1)
P. aeruginosa PBP3
  PBP3 acylation rate, k(on) (M^−1 · s^−1): ** (** represents a k(on) of 100 to 10,000 M^−1 · s^−1)
P. aeruginosa WT (PAO1)
  MIC: > 16 µg/mL
E. coli (ATCC25922)
  MIC: < 8 mg/L
A. baumannii (ARC3495)
  MIC: > 16 mg/L
[1]
  MIC: > 16 µg/mL

## CN/C(=N\OC(N)=O)[C@@H]1c2c(cnn2C)[C@@H]2CN1C(=O)N2OS(=O)(=O)O (racemic) [Example 14, pyridium (4R,8S)-8-((Z)—N′-(carbamoyloxy)-N-methylcarbamimidoyl)-1-methyl-6-oxo-4,8-dihydro-1H-4,7-methanopyrazolo[3,4-e][1,3]diazepin-5(6H)-yl hydrogen sulfate]
P. aeruginosa PBP1a
  PBP1a acylation rate, k(on) (M^−1 · s^−1): ** (** represents a k(on) of 100 to 10,000 M^−1 · s^−1)
P. aeruginosa PBP2
  PBP2 acylation rate, k(on) (M^−1 · s^−1): * (* represents a k(on) < 100 M^−1 · s^−1)
P. aeruginosa PBP3
  PBP3 acylation rate, k(on) (M^−1 · s^−1): *** (*** represents a k(on) > 10,000 M^−1 · s^−1)
P. aeruginosa WT (PAO1)
  MIC: < 8 µg/mL
E. coli (ATCC25922)
  MIC: < 8 mg/L
A. baumannii (ARC3495)
  MIC: 8 to 16 mg/L
[1]
  MIC: < 8 µg/mL

## CC(=O)O/N=C(\N)[C@@H]1c2c(cnn2C)[C@@H]2CN1C(=O)N2OS(=O)(=O)O [Example 70, Pyridium (4R,8S)-8-((Z)—N′-acetoxycarbamimidoyl)-1-methyl-6-oxo-4,8-dihydro-1H-4,7-methanopyrazolo[3,4-e][1,3]diazepin-5(6H)-yl hydrogen sulfate]
P. aeruginosa PBP1a
  PBP1a acylation rate, k(on) (M^−1 · s^−1): * (* represents a k(on) < 100 M^−1 · s^−1)
P. aeruginosa PBP2
  PBP2 acylation rate, k(on) (M^−1 · s^−1): * (* represents a k(on) < 100 M^−1 · s^−1)
P. aeruginosa PBP3
  PBP3 acylation rate, k(on) (M^−1 · s^−1): ** (** represents a k(on) of 100 to 10,000 M^−1 · s^−1)
P. aeruginosa WT (PAO1)
  MIC: > 16 µg/mL
E. coli (ATCC25922)
  MIC: 8 to 16 mg/L
A. baumannii (ARC3495)
  MIC: > 16 mg/L
[1]
  MIC: > 16 µg/mL
